Experimental data taken from US6939882B1 (priority 1999, dated 2005).

Key:
[1] = system: Leptosphaeria nodorum; conditions: in vivo; note: key: 1 is little or no control; 2 is moderate control; 3 is good to total control
[2] = system: Phytophthora infestans; type: in vivo; conditions: concentration of 500 ppm (w/v) or less, spray or stem base drench
[3] = system: Plasmopara viticola; conditions: in vivo; note: key: 1 is little or no control; 2 is moderate control; 3 is good to total control
[4] = system: Pyricularia oryzae; type: in vivo; conditions: concentration of 500 ppm (w/v) or less, spray or stem base drench

SMILES	score of disease control (degree of infection visually estimated) [3]	score of disease control (degree of infection visually estimated) [4]	other results
CC(NCc1ncc(C(F)(F)F)cc1Cl)c1ccc(F)c(F)c1 (stereo not drawn) [Compound 23, N-{[3-Chloro-5-(trifluoromethyl)-2-pyridyl]methyl}-N-[1-(3,4-difluorophenyl)-ethyl]amine]			score of disease control (degree of infection visually estimated) [1]: 2
CC(NC(=O)c1ncc(C(F)(F)F)cc1Cl)c1c(F)cccc1F (stereo not drawn) [Compound 202]			score of disease control (degree of infection visually estimated) [2]: 2
O=C(NNc1ncc(C(F)(F)F)cc1Cl)c1c(Cl)cccc1Cl [Compound 102]	2		score of disease control (degree of infection visually estimated) [2]: 2
CC(NCc1ncc(C(F)(F)F)cc1Cl)c1ccccc1Cl (stereo not drawn) [Compound 17]		2	
O=C(NOc1ncc(C(F)(F)F)cc1Cl)c1ccccc1Cl [Compound 1013]	2		
CCOC(=O)C(c1ncc(C(F)(F)F)cc1Cl)N(Cc1ccccc1Cl)C(=O)C(=O)OC (stereo not drawn) [Compound 9]	2	2	
Cc1nc(C)c(C(=O)NOc2ncc(C(F)(F)F)cc2Cl)s1 [Compound 1007]			score of disease control (degree of infection visually estimated) [1]: 2
N#CC(=NOc1ncc(C(F)(F)F)cc1Cl)c1c(Cl)cccc1Cl (single isomer, unassigned) [Compound 937]		2	
CC(=NOc1ncc(C(F)(F)F)cc1Cl)c1cccs1 [Compound 913]		2	
CCC(=NOc1ncc(C(F)(F)F)cc1Cl)c1ccccc1 [Compound 922]		2	
O=[N+]([O-])c1ccc(CNCc2ncc(C(F)(F)F)cc2Cl)cc1 [Compound 51]			score of disease control (degree of infection visually estimated) [1]: 2
N#CC(=NOc1ncc(C(F)(F)F)cc1Cl)c1ccccc1 [Compound 926]			score of disease control (degree of infection visually estimated) [1]: 2
CC(=NOc1ncc(C(F)(F)F)cc1Cl)c1ccccc1Cl [Compound 901]	2	2	
CCOC(=O)C(c1ncc(C(F)(F)F)cc1Cl)N(Cc1ccc2c(c1)OCO2)C(=O)C(=O)OC (stereo not drawn) [Compound 12]	2		
FC(F)(F)c1cnc(ON=C(c2ccc(Cl)cc2)c2ccc(Cl)cc2)c(Cl)c1 [Compound 958]	2		
CC(NC(=O)c1ncc(C(F)(F)F)cc1Cl)c1ccc(Cl)cc1 (stereo not drawn) [Compound 207]			score of disease control (degree of infection visually estimated) [1]: 2
COc1ccc(OC)c(CNCc2ncc(C(F)(F)F)cc2Cl)c1 [Compound 49]			score of disease control (degree of infection visually estimated) [2]: 2
O=C(C=Cc1ncc(C(F)(F)F)cc1Cl)c1ccccc1[N+](=O)[O-] [Compound 601, 3-[3-Chloro-5-(trifluoromethyl)-2-pyridyl]-1-(2-nitrophenyl)-2-propen-1-one]	2		score of disease control (degree of infection visually estimated) [2]: 2
CC(=NOc1ncc(C(F)(F)F)cc1Cl)c1ccc(C)cc1C [Compound 915]	2		
FC(F)(F)c1cnc(ON=Cc2cccc3ccccc23)c(Cl)c1 [Compound 933]			score of disease control (degree of infection visually estimated) [1]: 2
CCOC(=O)C(c1ncc(C(F)(F)F)cc1Cl)N(Cc1ccccc1Cl)C(C)=O (stereo not drawn) [Compound 7]	2	2	

SMILES	score of disease control (degree of infection visually estimated) [3]	score of disease control (degree of infection visually estimated) [4]	other results
FC(F)(F)c1cnc(ON=Cc2ccncc2)c(Cl)c1 [Compound 902]			score of disease control (degree of infection visually estimated) [2]: 2
N#CC(=NOc1ncc(C(F)(F)F)cc1Cl)c1c(Cl)cccc1Cl (single isomer, unassigned) [Compound 938]		2	
FC(F)(F)c1cnc(ON=Cc2ccccc2Cl)c(Cl)c1 [Compound 929]			score of disease control (degree of infection visually estimated) [1]: 2
CC(C)(C)C(=NOc1ncc(C(F)(F)F)cc1Cl)c1ccccn1 [Compound 912]			score of disease control (degree of infection visually estimated) [2]: 2
CC(=NOc1ncc(C(F)(F)F)cc1Cl)c1cccn1C [Compound 906]		2	score of disease control (degree of infection visually estimated) [1]: 2
N#CC(=NOc1ncc(C(F)(F)F)cc1Cl)c1ccccc1C#N [Compound 939]		2	
Cc1cnc(C(=O)NOc2ncc(C(F)(F)F)cc2Cl)cn1 [Compound 1001]	2	2	
COc1ccccc1C=NOc1ncc(C(F)(F)F)cc1Cl [Compound 921]	2		
COc1ccc(C=NOc2ncc(C(F)(F)F)cc2Cl)cc1 [Compound 914]	2		
CC(NC(=O)c1ncc(C(F)(F)F)cc1Cl)c1ccc(Br)cc1 (stereo not drawn) [Compound 208]			score of disease control (degree of infection visually estimated) [1]: 2
CCC(=NOc1ncc(C(F)(F)F)cc1Cl)c1ccc(Cl)cc1Cl [Compound 953]			score of disease control (degree of infection visually estimated) [2]: 2
CN1C(=O)C(=NOc2ncc(C(F)(F)F)cc2Cl)c2ccccc21 [Compound 1109]			score of disease control (degree of infection visually estimated) [1]: 2
CC(=NOc1ncc(C(F)(F)F)cc1Cl)c1ccccc1 [Compound 927]			score of disease control (degree of infection visually estimated) [2]: 2
COc1ccc2c(c1)C(=NOc1ncc(C(F)(F)F)cc1Cl)CCC2 [Compound 1102]			score of disease control (degree of infection visually estimated) [2]: 2
CC1CCc2ccccc2C1=NOc1ncc(C(F)(F)F)cc1Cl (stereo not drawn) [Compound 1101, 2-Methyl-1,2,3,4-tetrahydro-1-naphthalenone O-1-[3-chloror-5-(trifluoromethyl)-2-pyridyl]oxime]			score of disease control (degree of infection visually estimated) [2]: 2
Cc1ccc(CNC(=O)c2ncc(C(F)(F)F)cc2Cl)cc1 [Compound 215]	2		score of disease control (degree of infection visually estimated) [2]: 2
O=C(NNc1ncc(C(F)(F)F)cc1Cl)c1c(F)cccc1Cl [Compound 126]	2	2	score of disease control (degree of infection visually estimated) [2]: 2; score of disease control (degree of infection visually estimated) [1]: 2
O=[N+]([O-])c1cccc(C=NOc2ncc(C(F)(F)F)cc2Cl)c1 [Compound 923]		2	score of disease control (degree of infection visually estimated) [1]: 2
CC(=NOc1ncc(C(F)(F)F)cc1Cl)c1ccccc1C [Compound 907]	2	2	
CN(NC(=O)c1c(Cl)cccc1Cl)c1ncc(C(F)(F)F)cc1Cl [Compound 109]	2		
